Assay results as given in patent US8383838B2, “5-oxo-2,3,4,5-tetrahydro-benzo[b]oxepine-4-carboxylic acid amides and 2,3-dihydro-benzo[b]oxepine-4-carboxylic acid amides for treatment and prevention of diabetes typ 1 and 2” (Merck Patent Gesellschaft mit Beschränkter Haftung, priority 2008, dated 2013).

Target: T1, human GK (Homo sapiens, UniProt P35557)
T1 sequence (P35557 1-465): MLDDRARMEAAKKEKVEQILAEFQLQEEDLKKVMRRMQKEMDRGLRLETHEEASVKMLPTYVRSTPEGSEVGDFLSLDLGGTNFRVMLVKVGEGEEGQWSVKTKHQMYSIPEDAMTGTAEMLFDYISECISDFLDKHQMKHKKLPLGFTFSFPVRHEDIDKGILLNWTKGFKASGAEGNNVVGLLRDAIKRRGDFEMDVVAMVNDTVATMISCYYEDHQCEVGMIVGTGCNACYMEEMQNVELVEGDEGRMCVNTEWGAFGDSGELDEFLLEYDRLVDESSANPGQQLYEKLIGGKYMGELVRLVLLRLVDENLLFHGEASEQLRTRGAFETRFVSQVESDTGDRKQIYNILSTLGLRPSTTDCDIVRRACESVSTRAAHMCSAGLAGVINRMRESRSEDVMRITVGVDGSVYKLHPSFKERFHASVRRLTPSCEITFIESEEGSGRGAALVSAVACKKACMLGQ
Test: Glucokinase Activation Screening Assay (coupled enzyme assay with PK and LDH)
Type: biochemical
Conditions: activation of human GK in percent of control (control incubation: 2 mM glucose, 0.91% DMSO); compound concentration not stated
Procedure: Glucokinase Activation Screening Assay
GK activity (human or rat enzyme) is measured by a coupled enzyme assay using pyruvate kinase (PK) and lactate dehydrogenase (LDH) as coupling enzymes. GK activity is calculated from the decline in NADH monitored photometrically with a microtiter plate (MTP) reader at 340 nm.
For screening purposes, the GK assay is routinely run in a 384-MTP format, in a total volume of 33 μl/well. 10 μl of the ATP-regeneration solution (in HEPES-buffer*, pH 7.0, 6.73 U/ml pyruvate kinase, 6.8 U/ml lactate dehydrogenase) and 10 μl of the glucokinase-/glucose solution (15 μg/ml, 6.6 mM glucose in HEPES-buffer*, pH 7.0; the concentration of the glucose stock-solution was 660 mM in Millipore H2O) were mixed together with […] of a 10% DMSO solution (in HEPES-buffer*, pH 7.0) containing 3.3-fold the amounts of the compounds to achieve final compound concentrations in the range between 1 nM to 30 μM (sometimes 300 μM) in the assay solution (s. below). The solutions were mixed for 5 sec, and after a centrifugation at 243×g for 5 min, the solutions were preincubated for 25 min at room temperature.
The reaction was started by the addition of 10 μl of the NADH-/ATP-solution (4.29 mM NADH, 4.95 mM ATP, in HEPES-buffer*). The MTP was shaken for 5 sec., and then, the absorbance at 340 nm was monitored continuously in a MTP-reader (TECAN Spectro fluor plus) for the next 27 min (with a MTP-cycling time of 199 sec.). The final concentrations of the various components were as follows: 49.5 mM Hepes, pH 7.0, 1.49 mM PEP, 1,3 mM NADH, 49.5 mM KCl, 4.96 mM MgCl2, 1.5 mM Mg-ATP, 1.98 mM DTT, 2.04 U/ml pyruvate kinase, 2.06 U/ml lactate-dehydrogenase, 0.91% DMSO, 0.15 μg/well glucokinase, and test compounds in the range between 1 nM and 300 μM.
The change in the optical density (ΔOD340 nm) in the presence of the compound was expressed relative to the ΔOD340 nm, ctrl of the control incubation (in the presence of 2 mM glucose and 0.91% DMSO), taking into account the optical density of the blank sample (incubation in the absence of 2 mM glucose). For the determination of the half maximal effective concentration (EC50), the %-Ctrl-values were plotted in a semi-logarithmic graph against the conc. of the compound of interest. The data points were fitted to a sigmoid curve function (f(x)=((%-Ctrlmax−%-Ctrlmin)/(1−(EC50/x **^n(Hill)))+%-Ctrlmin)) by a non-linear regression analysis.
* Hepes-buffer (50 mM Hepes, pH 7.0, 5 mM MgCl2, 50 mM KCl, 1.5 mM PEP, 0.1% BSA). DTT was added to the Hepes-buffer from a 200X stock solution (in Millipore H2O) freshly each day. The final concentration of DTT in the Hepes-buffer is 2 mM.

| hGK % CTL [% CTL] | SMILES |
| --- | --- |
| 312 | O=C(Nc1ccccn1)C1CCOc2cc(Cl)c(Cl)cc2C1=O (stereo not drawn) [Compound 1, 7,8-Dichloro-5-oxo-2,3,4,5-tetrahydro-benzo[b]oxepine-4-carboxylic acid pyridine-2-ylamide] |
| 218 | O=C(Nc1nccs1)C1CCOc2cc(F)ccc2C1=O (stereo not drawn) [Compound 2, 8-Fluoro-5-oxo-2,3,4,5-tetrahydro-benzo[b]oxepine-4-carboxylic acid thiazol-2-ylamide] |
| 291 | CCc1ccc2c(c1)OCCC(C(=O)Nc1ccccn1)C2=O (stereo not drawn) [Compound 3, 8-Ethyl-5-oxo-2,3,4,5-tetrahydro-benzo[b]oxepine-4-carboxylic acid pyridine-2-ylamide] |
| 129 | O=C(Nc1ccccn1)C1=Cc2ccccc2OCC1 [Compound 4, 2,3-Dihydro-benzo[b]oxepine-4-carboxylic acid pyridin-2-ylamide] |
| 388 | O=C(Nc1ccccn1)C1CCOc2cc(Cl)ccc2C1=O (stereo not drawn) [Compound 5, 8-Chloro-5-oxo-2,3,4,5-tetrahydro-benzo[b]oxepine-4-carboxylic acid pyridin-2-ylamide] |
| 245 | O=C(Nc1ccccn1)C1CCOc2ccccc2C1=O (stereo not drawn) [Compound 6, 5-Oxo-2,3,4,5-tetrahydro-benzo[b]oxepine-4-carboxylic acid pyridin-2-ylamide] |
| 215 | O=C(Nc1nccs1)C1CCOc2cc(Cl)ccc2C1=O (stereo not drawn) [Compound 7, 8-Chloro-5-oxo-2,3,4,5-tetrahydro-benzo[b]oxepine-4-carboxylic acid thiazol-2-ylamide] |
| 194 | O=C(Nc1nccs1)C1CCOc2cc(Cl)c(Cl)cc2C1=O (stereo not drawn) [Compound 8, 7,8-Dichloro-5-oxo-2,3,4,5-tetrahydro-benzo[b]oxepine-4-carboxylic acid thiazol-2-ylamide] |
| 207 | CCc1ccc2c(c1)OCCC(C(=O)Nc1nccs1)C2=O (stereo not drawn) [Compound 9, 8-Ethyl-5-oxo-2,3,4,5-tetrahydro-benzo[b]oxepine-4-carboxylic acid thiazol-2-ylamide] |
| 192 | O=C(Nc1ccccn1)C1CCOc2ccc(Cl)cc2C1=O (stereo not drawn) [Compound 10, 7-Chloro-5-oxo-2,3,4,5-tetrahydro-benzo[b]oxepine-4-carboxylic acid pyridin-2-ylamide] |
| 121 | O=C(Nc1nccs1)C1CCOc2ccc(Cl)cc2C1=O (stereo not drawn) [Compound 11, 7-Chloro-5-oxo-2,3,4,5-tetrahydro-benzo[b]oxepine-4-carboxylic acid thiazol-2-ylamide] |
| 149 | COc1ccc2c(c1)C(=O)C(C(=O)Nc1ccccn1)CCO2 (stereo not drawn) [Compound 12, 7-Methoxy-5-oxo-2,3,4,5-tetrahydro-benzo[b]oxepine-4-carboxylic acid pyridin-2-ylamide] |
| 124 | CC1(C)COc2cc(-c3ccc(F)cc3)ccc2C(=O)C1C(=O)Nc1ccccn1 (stereo not drawn) [Compound 13, 8-(4-Fluoro-phenyl)-3,3-dimethyl-5-oxo-2,3,4,5-tetrahydro-benzo[b]oxepine-4-carboxylic acid pyridin-2-ylamide] |
| 115 | O=C(Nc1nccs1)C1CCOc2ccccc2C1=O (stereo not drawn) [Compound 14, 5-Oxo-2,3,4,5-tetrahydro-benzo[b]oxepine-4-carboxylic acid thiazol-2-ylamide] |
| 94 | O=C(Nc1ccccn1)C1CCOc2ccc(Oc3ccccc3)cc2C1=O (stereo not drawn) [Compound 15, 5-Oxo-7-phenoxy-2,3,4,5-tetrahydro-benzo[b]oxepine-4-carboxylic acid pyridin-2-ylamide] |
| 181 | CC1(C)COc2cc(Cl)c(F)cc2C(=O)C1C(=O)Nc1ccccn1 (stereo not drawn) [Compound 16, 8-Chloro-7-fluoro-3,3-dimethyl-5-oxo-2,3,4,5-tetrahydro-benzo[b]oxepine-4-carboxylic acid pyridin-2-ylamide] |
| 104 | CCc1ccc2c(c1)OCC(C)(C)C(C(=O)Nc1ccccn1)C2=O (stereo not drawn) [Compound 17, 8-Ethyl-3,3-dimethyl-5-oxo-2,3,4,5-tetrahydro-benzo[b]oxepine-4-carboxylic acid pyridin-2-ylamide] |
| 161 | O=C(Nc1nccs1)C1=Cc2ccccc2OCC1 [Compound 18, 2,3-Dihydro-benzo[b]oxepine-4-carboxylic acid thiazol-2-ylamide] |
